Reference: patent US20020081572A1, “Three dimensional structure of paramyxovirus hemagglutinin neuraminidases and use thereof” (priority 2000, published 2002)
pIC50: −log10 of the molar value.

Legend:
[1] = biological target: Influenza Neuraminidase; assay: Influenza neuraminidase fluorimetric assay; type: biochemical, influenza virus; settings: 4-methylumbelliferyl-alpha-D-acetylneuraminic acid substrate 75 uM, pH 6.5, 37 C
[2] = biological target: Sendai Virus Hemagglutinin-Neuraminidase (Sendai virus, UniProt P03425); assay: Paramyxovirus hemagglutinin-neuraminidase fluorimetric assay; type: biochemical
Sequence of Sendai Virus Hemagglutinin-Neuraminidase (P03425 whole entry): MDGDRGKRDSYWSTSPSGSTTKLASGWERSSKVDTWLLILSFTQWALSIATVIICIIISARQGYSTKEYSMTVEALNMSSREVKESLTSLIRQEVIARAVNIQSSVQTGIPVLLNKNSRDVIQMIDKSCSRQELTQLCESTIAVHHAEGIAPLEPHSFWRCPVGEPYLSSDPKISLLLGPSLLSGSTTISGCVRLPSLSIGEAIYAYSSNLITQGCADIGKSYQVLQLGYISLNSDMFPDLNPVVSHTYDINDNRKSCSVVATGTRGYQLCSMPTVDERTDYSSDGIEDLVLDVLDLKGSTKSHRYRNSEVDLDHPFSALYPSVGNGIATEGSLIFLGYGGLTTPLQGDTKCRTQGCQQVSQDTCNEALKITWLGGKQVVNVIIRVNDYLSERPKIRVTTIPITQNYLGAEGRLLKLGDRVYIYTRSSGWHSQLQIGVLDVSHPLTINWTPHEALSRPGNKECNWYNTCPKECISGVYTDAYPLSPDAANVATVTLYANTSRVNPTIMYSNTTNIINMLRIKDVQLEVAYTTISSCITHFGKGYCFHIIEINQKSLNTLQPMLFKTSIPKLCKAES

| Compound | pIC50 [1] | pIC50 [2] |
| --- | --- | --- |
| CCN(CC)C(=O)C(NC(C)=O)C1CC(C(=O)O)CC1NC(=N)N (stereo not drawn) [Compound 1, alpha-3-[(Acetylamino)(diethylaminocarbonyl)methyl]-beta-4-[(aminoiminomethyl)amino]cyclopentane-1-carboxylic acid] | > 7.30 | < 3.52 |
| CCC(CC)C(NC(C)=O)C1C(NC(=N)N)CC(C(=O)O)C1O (single isomer, unassigned; (-)) [Compound 2, (-)-t-e-[(1-Acetylamino)(2-ethyl)butyl]-c-4-(aminoiminomethyl)amino-t-2-hydroxycyclopentan-r-1-carboxylic acid] | > 7.30 | < 3.52 |
| CCC(CC)C(NC(C)=O)C1CC(C(=O)O)CC1NC(=N)N (single isomer, unassigned; (-)) [Compound 3, (-)t-3-[(1-Acetylamino-2-ethyl)butyl]-c-4-(aminoiminomethyl)aminocyclopentan-r-1-carboxylic acid] | > 7.30 | < 3.52 |
